Here are results for 8 compounds from US20260216348A1, “IRAK DEGRADATION AGENT AND USE THEREOF” (Increland, priority 2023, published 2026).

In data set [1] the target is T1, IRAK4 (Homo sapiens, UniProt Q9NWZ3).
T1 construct: Effect of the Compounds on IRAK4 Protein Degradation in THP1 Cells; endogenous in cells; host or cells: THP-1 cells
T1 sequence (Q9NWZ3 1-460): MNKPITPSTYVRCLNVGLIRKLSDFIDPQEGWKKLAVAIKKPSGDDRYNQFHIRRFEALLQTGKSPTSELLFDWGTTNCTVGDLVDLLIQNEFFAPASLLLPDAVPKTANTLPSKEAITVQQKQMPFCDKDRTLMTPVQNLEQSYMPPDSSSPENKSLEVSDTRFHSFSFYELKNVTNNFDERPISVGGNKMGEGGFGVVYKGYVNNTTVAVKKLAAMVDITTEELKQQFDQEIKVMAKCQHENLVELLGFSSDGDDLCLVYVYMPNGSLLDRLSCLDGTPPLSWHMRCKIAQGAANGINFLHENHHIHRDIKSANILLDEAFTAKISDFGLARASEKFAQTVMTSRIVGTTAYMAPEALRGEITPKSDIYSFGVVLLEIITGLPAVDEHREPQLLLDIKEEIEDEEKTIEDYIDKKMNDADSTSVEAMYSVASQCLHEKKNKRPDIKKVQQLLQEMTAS
The experiment in a line: IRAK4 protein degradation in THP1 cells (Western blot). Type of data set: cell-based. Particulars: THP-1 cells, 24 h. A digest of the protocol: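 THP-1 cells (2×10^5/well) were treated with 5-fold serial compound dilutions for 24 h at 37 °C, then lysed with proteasome/phosphatase inhibitors. IRAK4 was detected by Western blot with chemiluminescence and semi-quantified by densitometry. DC50 came from the concentration–response.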

For data set [2], the system named is R848-induced IL-6 secretion in human peripheral blood mononuclear cells (PBMCs). The experiment in a line: Inhibition of R848-induced IL-6 secretion in human PBMCs (IL-6 ELISA). Format: cell-based. The conditions noted are these: PBMC, R848 2.5 μg/mL, 20 h pre-incubation, 24 h stimulation. The method, boiled down: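 Human PBMCs at 1.25×10^6 cells/mL were preincubated for 20 h at 37 °C with compound, starting at 1 μM in 4-fold dilutions. They were then stimulated with 2.5 μg/mL R848 for 24 h. Supernatant IL-6 was measured by ELISA at OD450 against a standard curve.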
A general note: ELISA stands for enzyme-linked immunosorbent assay.

The test system of data set [3] is LPS/IL-1β-induced IL-6 secretion in human peripheral blood mononuclear cells (PBMCs). In words: Inhibition of LPS/IL-1β-induced IL-6 secretion in human PBMCs (IL-6 ELISA). Type of data set: cell-based. The conditions noted are these: PBMC, LPS 10 ng/mL + IL-1β 20 ng/mL, 24 h pre-incubation, 20 h stimulation. The method, boiled down:
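IC50 values come from fitted curves of IL-6 levels, determined by ELISA (OD450, standard curve) in supernatants diluted 200-fold. Human PBMCs received 5-fold serial compound dilutions (top 1 μM) for 24 h before a 20 h challenge with final 10 ng/mL LPS and 20 ng/mL IL-1β, 37 °C, 5% CO2.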

Data set [4] in a line: Pharmacokinetic experiment on SD rats (iv and intragastric). Particulars: Sprague-Dawley, rat, plasma, po; for bioavailability: ig 10.00 mg/kg vs iv 1.00 mg/kg, read-out: Oral bioavailability Fobs; for AUC / AUC(0-inf) / Cmax: ig, 10.00 mg/kg; for Cmax: read-out: Peak plasma concentration Cmax. Type of data set: in vivo.

One may read the DC50 as the midpoint of the concentration-degradation curve. Read a low DC50 as degradation at low concentration. As usually defined, the IC50 is the concentration that inhibits the measured activity by half. `CN(C)c1cc2nn([C@H]3CC[C@H](CN4CC[C@@H](n5cc6cc(C7CCC(=O)NC7=O)c(F)cc6n5)[C@@H](F)C4)CC3)cc2cc1NC(=O)c1cnn2cccnc12` (stereo partly drawn) [TM-135]: in data set [1], the DC50 worked out at 1.23 nM. For the same compound, the IC50 was 4.53 nM in data set [2] and 2.66 nM in data set [3].
Broadly, the bioavailability is dose-corrected exposure relative to a reference, in per cent. As a reminder, the AUC is the area under the concentration-time curve, a measure of exposure. The term AUC(0-inf) denotes total exposure, with the tail of the curve extrapolated. `CN(C)c1cc2nn([C@H]3CC[C@H](CN4CCC(n5cc6c(F)cc(N7CCC(=O)NC7=O)cc6n5)CC4)CC3)cc2cc1NC(=O)c1cnn2cccnc12` [TM-174] gave a 50% degradation concentration (DC50) in data set [1] of 1.24 nM. In addition, in data set [4], the bioavailability was 24.5%, the exposure (AUC) worked out at 3630 ± 1500 ng·h/mL, the AUC(0-inf) is 4160 ± 1440 ng·h/mL and the Cmax stood at 356 ± 201 ng/mL. For the same compound, in data set [2], the half-inhibitory concentration (IC50) amounted to 3.19 nM. Further, the IC50 in data set [3] was determined as 1.49 nM.
For `CN(C)c1cc2nn([C@H]3CC[C@H](CN4C[C@@H](n5cc6cc(N7CCC(=O)NC7=O)ccc6n5)[C@@H](F)C4)CC3)cc2cc1NC(=O)c1cnn2cccnc12` [TM-205], the DC50 in data set [1] turned out to be 1.56 nM. In addition, the concentration for half-maximal inhibition (IC50) in data set [2] worked out at 3.78 nM; in data set [3] it was 2.47 nM.
For the compound `CN(C)c1cc2nn([C@H]3CC[C@H](CN4C[C@@H](F)[C@@H](n5cc6cc(C7CCC(=O)NC7=O)c(F)cc6n5)C4)CC3)cc2cc1NC(=O)c1cnn2cccnc12` (stereo partly drawn) [TM-240], the DC50 in data set [1] was found to be 2.61 nM. In data set [4], the bioavailability stood at 29.9%, the AUC stood at 7990 ± 3140 ng·h/mL, the AUC(0-inf) was determined as 7990 ± 3120 ng·h/mL and the Cmax came out at 976 ± 545 ng/mL. For the same compound, in data set [2], the half-inhibitory concentration (IC50) stood at 2.68 nM. Besides, the IC50 in data set [3] was 1.09 nM.
`CN(C)c1cc2nn([C@H]3CC[C@H](CN4C[C@@H](n5cc6cc(C7CCC(=O)NC7=O)c(F)cc6n5)[C@@H](F)C4)CC3)cc2cc1NC(=O)c1cnn2cccnc12` (stereo partly drawn) [TM-241] had a DC50 in data set [1] of 11.7 nM. For the same compound, in data set [4], the bioavailability came out at 35.2%, the exposure (AUC) amounted to 14200 ± 4660 ng·h/mL, the AUC(0-inf) was determined as 14900 ± 4690 ng·h/mL and the Cmax is 1650 ± 641 ng/mL. This compound returned a concentration for half-maximal inhibition (IC50) in data set [2] of 9.08 nM. In data set [3], the 50% inhibitory concentration (IC50) is 6.35 nM.
`CN(C)c1cc2nn([C@H]3CC[C@H](CN4C[C@@H](F)[C@H](n5cc6cc(C7CCC(=O)NC7=O)ccc6n5)C4)CC3)cc2cc1NC(=O)c1cnn2cccnc12` (stereo partly drawn) [TM-244] returned a DC50 in data set [1] of 3.21 nM. In addition, in data set [4], the bioavailability is 54.2%, the AUC was 13000 ± 2900 ng·h/mL, the total exposure AUC(0-inf) stood at 13200 ± 2960 ng·h/mL and the Cmax was 1330 ± 294 ng/mL. The compound further registered an IC50 in data set [2] of 14.4 nM. The IC50 in data set [3] amounted to 4.95 nM.
On to `CN(C)c1cc2nn([C@H]3CC[C@H](CN4C[C@@H](F)[C@H](n5cc6cc(C7CCC(=O)NC7=O)c(F)cc6n5)C4)CC3)cc2cc1NC(=O)c1cnn2cccnc12` (stereo partly drawn) [TM-245], for which, in data set [1], it took 1.41 nM to reach half-maximal degradation (DC50). In addition, in data set [4], the bioavailability is 63.7%, the AUC came to 14500 ± 1420 ng·h/mL, the AUC(0-inf) came out at 19000 ± 5060 ng·h/mL and the Cmax was 1190 ± 92.3 ng/mL. Further, the 50% inhibitory concentration (IC50) in data set [2] was found to be 4.02 nM. Further, in data set [3], the 50% inhibitory concentration (IC50) turned out to be 2.58 nM.
On to `CN(C)c1cc2nn([C@H]3CC[C@H](CN4C[C@H](F)[C@@H](n5cc6cc(C7CCC(=O)NC7=O)c(F)cc6n5)C4)CC3)cc2cc1NC(=O)c1cnn2cccnc12` (stereo partly drawn) [TM-249], for which the half-maximal degradation concentration (DC50) in data set [1] came to 2.38 nM. In data set [4], the bioavailability is 38.8%, the AUC was 8610 ± 4000 ng·h/mL, the AUC(0-inf) came to 9310 ± 4680 ng·h/mL and the Cmax was 814 ± 187 ng/mL. In data set [2], the IC50 is 4.37 nM. The half-inhibitory concentration (IC50) in data set [3] amounted to 3.08 nM.
